Experimental data from patent US11672786B2, “Methods of treating diseases associated with repeat instability” (The Hospital for Sick Children, priority 2016, dated 2023).

How the values were obtained:
[1] = system: Mapkap1 and Fgd4 loci in striatum from R6/2 mouse; assay: repeat-tract lengths of non-expanded loci in R6/2 striatum; type: in vivo; conditions: four injections, both sides of striatum
single G-T mismatch = assay: in vitro repair assay by HeLa cell extracts, G-T mismatch; type: biochemical, human
Description: Panel A of […] is a schematic of the in vitro repair assay. Starting DNAs and repair products released the repeat-containing fragment, which is resolved on PAGE and assessed on a molar level by Southern blotting and densitometry. Repair of different DNA substrates containing a long (CAG)20 slip-out (Panel B of FIG. 3) long (CTG)20 slip-out (Panel C of FIG. 3), a single CAG slip-out (Panel D of FIG. 3) or a single G-T mismatch (Panel E of FIG. 3), in the absence or in the presence of NA. Slipped-DNA substrates were prepared from hybrids of (CAG)50●(CTG)30, (CAG)30●(CTG)50 or of (CAG)50●(CTG)49. Repair of the G-T mismatch reconstitutes a HindIII restriction site, as shown schematically. Graphs show percentage repair efficiencies to repaired product relative to all repeat-containing fragments in the lane, values are normalized to the NA-free efficiency. […]
To determine how the binding of NA to slipped DNA structures affects repair, a series of circular slipped heteroduplex substrates was made with an excess of repeats with a nick located either 5′ or 3′ of the slip-out (FIG. 3). […] All these substrates were processed in […] by HeLa extracts and then were assessed for repair. Repair products were analyzed by Southern blotting, probed for the repeat-containing fragment, and compared with starting material, which permitted quantitative assessment of repair efficiency at a molar level. […]

[2] = system: clustered short slip-outs on (CAG)50●(CTG)50 (S-DNA); assay: band-shift NA-DNA binding, clustered short slip-outs (S-DNA); design: species or system human; conditions: NA 0.15-50 μM, 4% polyacrylamide gel
Description: FIG. 2 are the results of experiments showing that NA binds to long CAG slip-outs. […] The (CAG)n DNA sequence (left) can fold into an hairpin structure involving mismatched A-A pair flanking C-G base pairs (middle). NA molecules can intercalate into the DNA helix, with the 2-amino-1,8-naphthyridine moiety (in red) hydrogen bonding to guanine and 8-azaquinolone moiety (in blue) hydrogen bonding to adenine. […] Long slip-outs extruded as a single slip-out from a fully base-paired backbone of (CTG)n●(CAG)n, as described (Pearson et al., 2002, Nuc. Acids Res., 30:4534-47). DNAs were mixed with increasing concentrations of NA (0.15 μM, 0.75 μM, 7.5 μM and 50 μM) and resolved on 4% polyacrylamide gels. All lanes are from the same gel, and they were separated for clarity. NA-DNA complexes are shown by brackets, free DNA is indicated by arrowheads. […] The relative migration was measured for the linear and the three slip-outs substrates as the ratio of the migration distance of each NA-DNA complex to the migration distance of the free DNA. The migration distance was measured from the well to a consistent center point of each band. […]

With naphthyridine-azaquinolone the “length variation at Mapkap1 and Fgd4 loci” value [1] was “Length variation was not observed”, the “effect on G-T mismatch repair” value (single G-T mismatch) was “no effect” and the “NA binding (band-shift)” value [2] was “can bind NA to a limited degree”.
